Source: PubChem BioAssay AID1963965 (Molecular Pharmacology Branch, DTP, NCI, 2024)
Values joined by “and” are separate entries in the source; they are usually repeats but may differ in a detail not shown here. Identical values can stand only once.

Tested on: 996289-038-R-J1-PDC spheroid viability
Experiment: Anticancer human tumor 996289-038-R-J1-PDC patient-derived colon adenocarcinoma cell line growth inhibition [PI3K]
Details: spheroids with HUVEC and MSC; for viability, T/C: stronger effect = lower value
From the text: Combinatorial screen of targeted agents with the PI3K inhibitors inavolisib, alpelisib, duvelisib, and copanlisib in multi-cell type tumor spheroids
A high-throughput screen of multi-cell type tumor spheroids was designed to identify active combinations of targeted small molecules and PI3K pathway inhibitors. Complex spheroids include a stromal component modeled by human endothelial cells (HUVEC) and fibroblasts modeled by human mesenchymal stem cells (MSCs). The concentration ranges selected for each drug and investigational agent were based upon clinically achievable concentrations if the clinical Cmax of the agent was known.
Compounds. The drugs and investigational agents: inavolisib (NSC800729), alpelisib (NSC765974), duvelisib (NSC772469), copanlisib (NSC816437), ipatasertib (NSC767898), afuresertib (NSC778305), talazoparib (NSC767125), sapanisertib (NSC764658), selumetinib (NSC741078), tovorafenib (DAY101, NSC766906), vemurafenib (NSC761431), ravoxertinib (NSC781343), sotorasib (NSC818433), MRTX1133 (NSC 836407), abemaciclib (NSC 768073), palbociclib (NSC758247), venetoclax (NSC 766270), SY5609 (NSC837396), enzalutamide (NSC755605), and darolutamide (NSC825331), were obtained from the National Cancer Institute (NCI) Developmental Therapeutics Program Chemical Repository. The FDA-approved anticancer drug set is available from the NCI Developmental Therapeutics Program. […] The stock solutions were prepared in dimethyl sulfoxide (DMSO, Sigma-Aldrich, St. Louis, MO, cat. D2650) at 800-fold the tested concentration and stored at -70 degrees C prior to their use. All drugs and investigational agents were tested over a range starting from a high concentration at or near the clinical Cmax and decreasing in half-log increments. If the clinical Cmax for an agent had not been determined, the highest concentration tested was 10 microM.
Cell Culture. All cells were maintained in an incubator at 37 degrees C and 5% CO2 with 95% humidity. The PDC lines were cultured according to standard operating procedures established by the NCI PDMR (https://pdmr.cancer.gov/sops/default.htm). All PDCs were thawed and cultured in Matrigel-coated flasks prepared with a working solution of 1X Ham's F-12 nutrient mix, without supplementation (Invitrogen, Waltham, MA, cat. 11765054), 100 U/mL penicillin-streptomycin (Invitrogen, cat. 15140122), and 2.5% Matrigel (Corning Inc., Corning, NY, cat. 354248) for the first three passages. The 354836-022-R-J1-PDC, 475296-252-R-J1-PDC, and 997726-040-R-J2-PDC lines were cultured in 6A media, which includes advanced DMEM/F-12 (Thermo Fisher Scientific, cat. 12634028), 10 mM HEPES (Thermo Fisher Scientific, cat. 15630080), 1X GlutaMAX supplement (Thermo Fisher Scientific, cat. 35050061), 0.1 mg/mL primocin (InvivoGen, San Diego, CA, cat. ant-pm-2), 10% defined fetal bovine serum, heat inactivated (HyClone Laboratories Inc., Logan, UT, cat. SH30070.03HI), 50% L-WRN conditioned media (ATCC, cat. CRL-3276), 1.25 mM N-Acetyl-L-cysteine (Sigma-Aldrich, cat. A9165), 10 mM nicotinamide (Sigma-Aldrich, cat. N0636), 1X B-27 supplement (Thermo Fisher Scientific, cat. 17504044), 1X N-2 supplement (Thermo Fisher Scientific, cat. 17502048), and 10 microM Y-27632 dihydrochloride (Tocris Bioscience, Bristol, United Kingdom, cat. 1254). The 624824-186-R-J2-PDC line was cultured in 6C/Colon 1B media, which includes all 6A media components plus 50 ng/mL human EGF recombinant protein (Thermo Fisher Scientific, cat. PHG0311). […]

[1] = compound alone, run of 06/13/2023
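Further: spheroids exposed to compounds for seven days before viability read.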
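Wherever viability, T/C is given: luminescence used as a proxy for viable cell amount; percent viability relative to DMSO vehicle control as 100%.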

| IC50 (curve of compound) | Compound | viability, T/C (compound 0.0316 µM) | viability, T/C (compound 0.1 µM) | viability, T/C (compound 1 µM) | viability, T/C (compound 3.16 µM) | viability, T/C (compound 10 µM) | viability, T/C (compound 0.316 µM) | other results |
| --- | --- | --- | --- | --- | --- | --- | --- | --- |
| > 10 µM | C=CC(=O)N1CCN(c2nc(=O)n(-c3c(C)ccnc3C(C)C)c3nc(-c4c(O)cccc4F)c(F)cc23)C(C)C1 (stereo not given) | 99.2% [middle of 4 runs] | 97.6% [middle of 4 runs] | 106% [middle of 4 runs] | 117% [middle of 4 runs] | 111% [middle of 4 runs] | – | – |
| > 0.1 µM | CC(=O)c1c(C)c2cnc(Nc3ccc(N4CCNCC4)cn3)nc2n(C2CCCC2)c1=O | 96% and 101% (2×) and 91.4% | 87.6% [middle of 4 runs] | – | – | – | – | viability, T/C (compound 0.000316 µM): 104% [middle of 4 runs]; viability, T/C (compound 0.001 µM): 96.8% [middle of 4 runs]; viability, T/C (compound 0.01 µM): 95.5% [middle of 4 runs] |
| > 10 µM | CC(C)NCC(C(=O)N1CCN(c2ncnc3c2C(C)CC3O)CC1)c1ccc(Cl)cc1 (stereo not given) | 106% [middle of 4 runs] | 86.8% [middle of 4 runs] | 94.2% [middle of 4 runs] | 88% [middle of 4 runs] | 78.7% [middle of 4 runs] | 99.8% [middle of 4 runs] | – |
| 58.6 nM [middle of 4 runs] | CC(C)n1nc(-c2ccc3oc(N)nc3c2)c2c(N)ncnc21 | 67% [middle of 4 runs] | 35.7% [middle of 4 runs] | – | – | – | – | viability, T/C (compound 0.000316 µM): 105% [middle of 4 runs]; viability, T/C (compound 0.001 µM): 85.2% [middle of 4 runs]; viability, T/C (compound 0.00316 µM): 89.4% [middle of 4 runs]; viability, T/C (compound 0.01 µM): 88.6% [middle of 4 runs] |
| > 10 µM | CC(Cn1ccc(-c2ccc(C#N)c(Cl)c2)n1)NC(=O)c1cc(C(C)O)[nH]n1 (stereo not given) | 98.8% [middle of 4 runs] | 104% (2×) and 86.4% and 92.5% | 108% [middle of 4 runs] | 97.8% [middle of 4 runs] | 101% [middle of 4 runs] | 86.8% and 108% (2×) and 113% | – |
| – | CC(Nc1ccc2c(c1)OCCn1cc(N3C(=O)OCC3C(F)F)nc1-2)C(N)=O (stereo not given) | 95.4% [middle of 8 runs] | 90.3% [middle of 8 runs] | 67.5% [middle of 8 runs] | – | – | 80% [middle of 8 runs] | viability, T/C (compound 0.00316 µM): 105% [middle of 8 runs]; IC50 (compound alone, run of 06/12/2023): > 1 µM |
| – | CC(Nc1ncnc2nc[nH]c12)c1cc2cccc(Cl)c2c(=O)n1-c1ccccc1 (stereo not given) | 99.9% [middle of 8 runs] | 98% [middle of 8 runs] | – | 89.2% [middle of 8 runs] | 95.7% [middle of 8 runs] | 97.6% [middle of 8 runs] | IC50 [1]: > 10 µM |
| 6.53 µM [middle of 4 runs] | CCCS(=O)(=O)Nc1ccc(F)c(C(=O)c2c[nH]c3ncc(-c4ccc(Cl)cc4)cc23)c1F | 106% [middle of 4 runs] | 93.7% [middle of 4 runs] | 94.5% [middle of 4 runs] | 96.8% [middle of 4 runs] | 23.3% [middle of 4 runs] | 100% [middle of 4 runs] | – |
| > 1 µM | CCN1CCN(Cc2ccc(Nc3ncc(F)c(-c4cc(F)c5nc(C)n(C(C)C)c5c4)n3)nc2)CC1 | 94% [middle of 4 runs] | 85.2% [middle of 4 runs] | 85.3% [middle of 4 runs] | – | – | 85.7% [middle of 4 runs] | viability, T/C (compound 0.00316 µM): 99.6% [middle of 4 runs]; viability, T/C (compound 0.01 µM): 91.2% [middle of 4 runs] |
| > 10 µM | CNC(=O)c1ccc(N2C(=S)N(c3ccc(C#N)c(C(F)(F)F)c3)C(=O)C2(C)C)cc1F | 111% and 106% (2×) and 100% | 97% [middle of 4 runs] | 113% [middle of 4 runs] | – | – | 111% [middle of 4 runs] | – |
| – | COc1c(OCCCN2CCOCC2)ccc2c3n(c(=NC(=O)c4cnc(N)nc4)nc12)CCN3 | 76.4% [middle of 8 runs] | 61.7% [middle of 8 runs] | 21.6% [middle of 8 runs] | – | – | 36.1% [middle of 8 runs] | viability, T/C (compound 0.00316 µM): 96.3% [middle of 8 runs]; viability, T/C (compound 0.01 µM): 96.2% [middle of 8 runs]; IC50 [1]: 162 nM [middle of 8 runs] |
| > 10 µM | C[C@@H](NC(=O)c1ncnc(N)c1Cl)c1ncc(C(=O)Nc2cc(C(F)(F)F)c(Cl)cn2)s1 | 110% [middle of 4 runs] | 103% [middle of 4 runs] | 114% [middle of 4 runs] | – | 131% [middle of 4 runs] | 110% (2×) and 119% and 115% | – |
| – | Cc1nc(NC(=O)N2CCCC2C(N)=O)sc1-c1ccnc(C(C)(C)C(F)(F)F)c1 (stereo not given) | 99.9% [middle of 8 runs] | 94.7% [middle of 8 runs] | 73.9% [middle of 8 runs] | 61.8% [middle of 8 runs] | 52.6% [middle of 8 runs] | 85.8% [middle of 8 runs] | – |
| 229 nM [middle of 4 runs] | Cn1cnc2c(F)c(Nc3ccc(Br)cc3Cl)c(C(=O)NOCCO)cc21 | – | – | – | – | – | – | viability, T/C (compound 0.00949 µM): 89.3% [middle of 4 runs]; viability, T/C (compound 0.03 µM): 74.7% [middle of 4 runs]; viability, T/C (compound 0.0949 µM): 64% [middle of 4 runs]; viability, T/C (compound 0.3 µM): 44.4% [middle of 4 runs]; viability, T/C (compound 0.949 µM): 35.1% [middle of 4 runs]; viability, T/C (compound 3 µM): 24.5% [middle of 4 runs] |
| > 10 µM and 9.82 µM | Cn1ncc(Cl)c1-c1cc(C(=O)NC(CN)Cc2cccc(F)c2)sc1Cl (stereo not given) | 90% [middle of 4 runs] | 90.5% [middle of 4 runs] | 79.9% [middle of 4 runs] | 75.6% [middle of 4 runs] | 52.2% [middle of 4 runs] | 84% [middle of 4 runs] | – |
| > 10 µM | Cn1nccc1Nc1nccc(-c2ccn(C(CO)c3ccc(Cl)c(F)c3)c(=O)c2)n1 (stereo not given) | 98.7% [middle of 4 runs] | 97% [middle of 4 runs] | 90.8% [middle of 4 runs] | 76.5% [middle of 4 runs] | 64.7% [middle of 4 runs] | 112% [middle of 4 runs] | – |
| > 0.1 µM | Cn1ncnc1[C@H]1c2n[nH]c(=O)c3cc(F)cc(c23)N[C@@H]1c1ccc(F)cc1 | 109% [middle of 4 runs] | 98.9% [middle of 4 runs] | – | – | – | – | viability, T/C (compound 0.001 µM): 105% [middle of 4 runs]; viability, T/C (compound 0.00316 µM): 103% [middle of 4 runs]; viability, T/C (compound 0.01 µM): 100% [middle of 4 runs] |
